How the values were obtained:
[1] = test system: P. berghei; assay: Effect of PAA on survival of infected mice; assay type: in vivo, BALB/c mice; settings: dose in the range of about 1 to 50 mg/kg (embodiment)
Protocol: (§1) BALB/c mice (4-6 weeks old) were infected with 10^5 P. berghei parasites/mouse. After four days of infection, when phosphono acetic acid (dissolved in saline and filter sterilized) at a dose of either 25 mg/kg body weight, or 50 mg/kg body weight. The injection of phosphono acetic acid was continued, once a day, for four days. After the fourth day of injection, parasitemea was determined by making Geimsa stained blood smears from the mice.
Effect of PAA on Survival of Infected Mice
The compound of various concentrations was added to the 200 μl of synchronized P. falciparum culture (1% parasitemia). The parasitemia was checked by making Giemsa stained smear after 48 hrs of incubation at 37° C. The compound, PAA was used at the doses of 25 mg/kg and 50 mg/kg body weight. The control group indicates the group of mice infected with the parasite, but with no drug given.

[2] = test system: P. falciparum; assay: Effect of drug on P. falciparum in vitro: synchronized culture, Giemsa stained smear after 48 hrs; assay type: cell-based, Plasmodium falciparum
Protocol: Phosphono acetic acid was dissolved in normal saline and filter sterilized. The compound was added to the parasite culture at different concentrations ranging from 1-400 μm. The compound phosphono acetic acid was tested at the indicated doses using the experimental protocol as described below:
Protocol for Testing the Effect of Drug on P. falciparum for In Vitro Studies
The P. falciparum cultures were synchronized at first by sorbitol treatment. The compound of various concentrations was added to the 200 μl of synchronized P. falciparum culture (1% parasitemia). The parasitemia was checked by making Giemsa stained smear after 48 hrs of incubation at 37° C. The growth of P. falciparum was inhibited in dose-dependent manner, where 1 μM concentration yielded >90% inhibition (Plate 1). The bars represent the percent inhibition, whereas, the blue curve indicates the percentage of parasitemia.
Phosphono formic acid was dissolved in normal saline and filter sterilized. The compound was added to the parasite culture at different concentrations ranging from 1-10 μM. The growth of P. falciparum was inhibited in dose-dependent manner, where 10 μM concentration yielded −70% inhibition (FIG. 2).

[3] = test system: 3D7 strain of P. falciparum; assay: Microscopy of Giemsa-stained slides, 3D7 strain of P. falciparum; assay type: cell-based, Plasmodium falciparum; settings: upon addition of PAA
Text: The effect of Phosphono Acetic Acid on the 3D7 Strain of P. falciparum Giemsa-stained slides prepared for the experiment were examined under a microscope and represented in Plate 4. […] It is clear that PAA actually kills the parasite rather than simply inhibiting their growth (FIG. 4).

[4] = test system: P. berghei; assay: Effect on P. berghei infected mice (in vivo model), parasitemia by Giemsa stained blood smears; design: species or system BALB/c mice; settings: 50 mg/kg of body weight, once a day for four days
Protocol: Effect of Phosphono Acetic Acid on P. berghei Infected Mice (In Vivo Model)
as §1

SMILES | enhances the survival [1] | inhibition of growth of P. falciparum ([2]; 1 μM concentration, 48 hrs, 1% parasitemia) | inhibits growth of P. falciparum ([2]; range of about 1 to 5 μM (embodiment)) | effect on parasite seen under microscope [3] | inhibition of growth of P. berghei [4] | inhibition of growth of P. falciparum ([2]; 10 μM concentration)
O=C(O)CP(=O)(O)O [phosphono acetic acid] | about 60% | > 90% | about 100% | disintegrated trophozoltes are seen | −60% | –
O=C(O)P(=O)(O)O [phosphono formic acid] | – | – | – | – | – | −70%
